≈ marks a conversion by molar mass, not a printed value.
Legend:
P388 Leukemia = experiment: In vivo antitumor activity, P388 Leukemia, increased lifespan; design: species or system BDF1 mice; conditions: IP, day 1 to day 5, survival monitored 30 days
Description: The in vivo data presented in Table 7 was determined in BDF1 mice for two murine cancer models, using 6 to 10 animals per test group. In the case of Lewis Lung carcinoma (LL) the mice are inoculated subcutaneously (SC) in the axillary region with a puncture in the inguinal area with the tumor on day 0. The compound being tested is administered intraperitoneally (IP) from day 1 to day 9 for a total of nine injections. The tumors are weighed on day 14 and the weight inhibition expressed as the median weight ratio of treated (T) to control (C) tumors. In the case of P388 Leukemia cells, a suspension of diluted ascites fluid (0.1 mL) containing 1×10^6 cells is implanted IP into the mice on day 0 and the compound being tested is administered IP from day 1 to day 5 for a total of five injections. Survival was monitored for 30 days and the increased lifespan expressed as median survival time of treated (T) to control (C) mice.

Hela cells = experiment: In vitro cytotoxicity assay (three day MTT microtiter assay), Hela; assay type: cell-based; conditions: Homo sapiens, 72 h; Hela cells, three days, MTT; read-out: In vitro tumor cell cytotoxicity (IC50), Hela
Description: (§1) IC50 's were measured in a colorimetric assay for cytotoxic activity against cultured cells according to the protocol described below:
(§2) A three day microtiter assay is used to measure the growth inhibition of cultured cells exposed to a range of drug concentrations. Metabolic activity is measured by the cell's ability to reduce the tetrazolium dye, MTT (3-(4,5-dimethylthiazol-2-yl)-2,5-diphenyltetrazolium bromide) to a quantifiable colored end-product, which absorbs at 570 nm in the visible spectrum. Surviving cells reduce the MTT dye.
(§3) Test compounds are dissolved in dimethyl sulfoxide (DMSO) and diluted, first with Earle's Balanced Salt Solution, followed by culture medium, to twice the highest concentration of compound to be tested. From this concentrated stock, two-fold serial dilutions are prepared in 96-well microtiter trays, each well containing twice the desired final concentration of compound. Each concentration is tested in triplicate and compared to triplicate drug-free controls.
(§4) The cells are grown in the same medium used for diluting the compounds. After harvesting by trypsinization*, viable cell counts are determined and cell density is adjusted to 25,000 cells/mL. Inoculum (0.1 mL), containing the cells, is then added to each well for a final concentration of 2,500 cells per well. Addition of the inoculum dilutes the test compounds to the desired final concentration.
(§5) *Adherent cells are harvested by trypsinization as follows:
(§6) 1. Remove the medium by aspiration.
(§7) 2. Rinse cell monolayer twice with Earle's Balanced Salt Solution.
(§8) 3. Add trypsin (0.05%)/EDTA (0.53 mM). For each 25 cm^2 use approximately 0.2 mL of solution, tilt to cover the monolayer, then withdraw trypsin leaving only a thin film of solution. Incubate at room temperature until cell monolayer detaches.
(§9) 4. When the cells have detached as determined by visual and/or microscopic observation, add medium containing fetal calf serum to stop the action of the trypsin and resuspend the cells. Triturate to aid dissociation of cell clumps.
(§10) 5. Determine the number of cells per milliliter by electronic cell counter (e.g. Coulter Counter) or by mixing an aliquot of cell suspension with Trypan Blue (0.4% in normal saline) and counting the viable cells using a hemacytometer.
(§11) Microtiter trays are incubated for three days at 36° C. in a humidified atmosphere containing 5% carbon dioxide.
(§12) After three days, 20 microtiters of 5 mg/mL MTT in phosphate-buffered saline solution is added to each well. Trays are returned to the incubator for two to four hours to allow the surviving cells to reduce the dye. Medium and unreduced dye are removed by aspiration. DMSO is added to each well to dissolve the water insoluble, colored end product of the dye reduction so that it can be measured spectrophotometrically at 570 nm.

DNA topoisomerase II = experiment: DNA Breakage Assay: topoisomerase II-mediated DNA breakage (linearized 32P-labeled PBR 322 plasmid, agarose gel); assay type: biochemical, calf; design: key to Topoisomerase II-mediated DNA breakage, extent of breakage: SB: strong breakage; MB: moderate breakage; WB: weak breakage; conditions: for Topoisomerase II-mediated DNA breakage, extent of breakage: at the concentration given; for Topoisomerase II-mediated DNA breakage, Concentration: concentration of compound which cleaves the DNA to smaller fragments, 30 minutes incubation
Description: Antitumor activity was assayed using the DNA Breakage Assay described below.
The DNA breakage assay requires two major reagents: DNA topoisomerase II and radiolabeled DNA. DNA topoisomerase II (topo II) was isolated from calf thymus as described by B. D. Holligan, et al. in J. Biol. Chem., 260, 2475-2482 (1985). Pure enzyme or partially purified extracts enriched in topo II activity may be used. PBR 322 plasmid was used as the DNA substrate. This plasmid, which is isolated in the closed circular form, is first linearized using, a restriction enzyme which cuts the plasmid in only one place. The newly exposed ends of the plasmid are then labeled with the radionuclide, 32P, using standard techniques described by T. Maniatis, et al. in "Molecular Cloning", Cold Spring Harbor Press, p. 115 (1982).
The enzyme and the radiolabeled DNA are added together first, then drug is added. After an incubation period of 30 minutes, the mixtures are quenched using 1% SDS. The mixtures are then subjected to agarose gel electrophoresis which separates the full length, linear substrate DNA from any small fragments that might be formed as a consequence of drug action. Smaller fragments run with a higher mobility. The distribution of the DNA species in the gel is assessed by autoradiography as described by T. Maniatis, et al. in "Molecular Cloning", Cold Spring Harbor Press, p. 115 (1982).
DNA breakage activity is assessed based on the level of substrate lost, the level of DNA appearing as smaller pieces running faster in the gel, and the distribution of these smaller pieces in the gel. The last criterion is important since drug-induced DNA cleavage that is enzyme-mediated fragmentation results in specific banding patterns due to the fact that the enzyme binds to specific sequences along the DNA molecule. A definite banding pattern is thus indicative of topo II-mediated cleavage and correlates well with anti-tumor activity.

[1] = tested on: P388.D1 leukemia cell line; experiment: In vitro cytotoxicity assay (three day MTT microtiter assay), P388.D1; assay type: cell-based; conditions: Mus musculus, P388D1, 72 h, read-out: In vitro tumor cell cytotoxicity (IC50), P388.D1
Description: The cytotoxity of the compounds of the present invention is illustrated in Table 6. IC50 's were measured in a colorimetric assay for cytotoxic activity against cultured cells according to the protocol described below:
as §2, §3, §4, §5, §6, §7, §8, §9, §10, §11
as §12, with “nm. The IC50 is determined as the concentration of compound tested required to reduce the absorbance at 570 nm to 50% of non-drug treated control values.” for “nm.”
^c P388 D1 is a leukemia cell line.

A549 cell line = experiment: In vitro cytotoxicity assay (three day MTT microtiter assay), A549; assay type: cell-based; conditions: Homo sapiens, 72 h; A549, three days, MTT; read-out: In vitro tumor cell cytotoxicity (IC50), A549
Description: as §1, §2, §3, §4, §5, §6, §7, §8, §9, §10, §11, §12

| Topoisomerase II-mediated DNA breakage, extent of breakage (DNA topoisomerase II) | Topoisomerase II-mediated DNA breakage, Concentration (DNA topoisomerase II) [µg/mL] | Structure (SMILES) | other results |
| --- | --- | --- | --- |
| SB | 32 | O=c1[nH]sc2c1c(=O)c1cc(F)c(N3CCOCC3)c(F)c1n2C1CC1 [Example 1, 9-Cyclopropyl-6,8-difluoro-7-(1-morpholino)-2,3,4,9-tetrahydroisothiazolo[5,4-b]quinoline-3,4-dione] | P388 Leukemia % T/C, median lifespan of treated compared to control mice (P388 Leukemia; 31.25 mg/kg): 104%; P388 Leukemia % T/C, median lifespan of treated compared to control mice (P388 Leukemia; 62.5 mg/kg): 100%; P388 Leukemia % T/C, median lifespan of treated compared to control mice (P388 Leukemia; 125 mg/kg): 108%; P388 Leukemia % T/C, median lifespan of treated compared to control mice (P388 Leukemia; 250 mg/kg): 108%; IC50 (Hela cells): 7 µg/mL (≈ 18.5 µM) |
| SB | 32 | CN1CCN(c2c(F)cc3c(=O)c4c(=O)[nH]sc4n(C4CC4)c3c2F)CC1 [Example 4] | IC50 (Hela cells): 1.3 µg/mL (≈ 3.31 µM) |
| MB | 64 | O=c1[nH]sc2c1c(=O)c1cc(F)c(N3CCN(CCO)CC3)c(F)c1n2C1CC1 [Example 5] | P388 Leukemia % T/C, median lifespan of treated compared to control mice (P388 Leukemia; 2.5 mg/kg): 125%; P388 Leukemia % T/C, median lifespan of treated compared to control mice (P388 Leukemia; 5 mg/kg): 129%; P388 Leukemia % T/C, median lifespan of treated compared to control mice (P388 Leukemia; 10 mg/kg): 142%; P388 Leukemia % T/C, median lifespan of treated compared to control mice (P388 Leukemia; 12.5 mg/kg): 117%; IC50 (Hela cells): 4 µg/mL (≈ 9.47 µM) |
| SB | 32 | O=c1[nH]sc2c1c(=O)c1cc(F)c(N3CCSCC3)c(F)c1n2C1CC1 [Example 6] | IC50 [1]: 6.3 µg/mL (≈ 15.9 µM); IC50 (A549 cell line): 12.5 µg/mL (≈ 31.6 µM) |
| SB | 32 | O=c1[nH]sc2c1c(=O)c1cc(F)c(N3CCCNCC3)c(F)c1n2C1CC1 [Example 7] | IC50 [1]: 0.2 µg/mL (≈ 0.51 µM) |
| MB | 32 | O=c1[nH]sc2c1c(=O)c1cc(F)c(N3CCCCC3)c(F)c1n2C1CC1 [Example 8] | IC50 (Hela cells): 3.9 µg/mL (≈ 10.3 µM) |
| SB | 32 | O=c1[nH]sc2c1c(=O)c1cc(F)c(N3CCCC(O)C3)c(F)c1n2C1CC1 (centres unmarked) [Example 9] | IC50 [1]: 2.05 µg/mL (≈ 5.21 µM); IC50 (A549 cell line): 3.9 µg/mL (≈ 9.91 µM) |
| SB | 32 | O=c1[nH]sc2c1c(=O)c1cc(F)c(N3CCC(O)CC3)c(F)c1n2C1CC1 [Example 10] | P388 Leukemia % T/C, median lifespan of treated compared to control mice (P388 Leukemia; 12.5 mg/kg): 129%; P388 Leukemia % T/C, median lifespan of treated compared to control mice (P388 Leukemia; 25 mg/kg): 133%; P388 Leukemia % T/C, median lifespan of treated compared to control mice (P388 Leukemia; 50 mg/kg): 133%; P388 Leukemia % T/C, median lifespan of treated compared to control mice (P388 Leukemia; 100 mg/kg): 117%; IC50 [1]: 0.23 µg/mL (≈ 0.585 µM); IC50 (A549 cell line): 2.9 µg/mL (≈ 7.37 µM) |
| SB | 32 | NCC1CCN(c2c(F)cc3c(=O)c4c(=O)[nH]sc4n(C4CC4)c3c2F)C1 (centres unmarked) [Example 12] | IC50 [1]: < 0.05 µg/mL; IC50 (A549 cell line): 0.3 µg/mL (≈ 0.764 µM) |
|  |  | O=c1[nH]sc2c1c(=O)c1cc(F)c(NC3CCN(Cc4ccccc4)CC3)c(F)c1n2C1CC1 [Example 13] | IC50 (Hela cells): 0.55 µg/mL (≈ 1.14 µM) |
| MB | 128 | CCn1c2s[nH]c(=O)c2c(=O)c2cc(F)c(N3CCNC(C)C3)c(F)c21 (centres unmarked) [Example 15] |  |
| MB | 32 to 64 | CCn1c2s[nH]c(=O)c2c(=O)c2cc(F)c(N3CCN(C)CC3)c(F)c21 [Example 16] |  |
| WB | 32 to 64 | CCn1c2s[nH]c(=O)c2c(=O)c2cc(F)c(N3CCC(N)C3)c(F)c21 (centres unmarked) [Example 17] |  |
| WB | 128 | CC1CN(c2cc3c(cc2F)c(=O)c2c(=O)[nH]sc2n3C2CC2)CCN1C (centres unmarked) [Example 22] |  |
| WB | 32 to 128 | O=c1[nH]sc2c1c(=O)c1cc(F)c(N3CCC(O)C3)cc1n2C1CC1 (centres unmarked) [Example 23] |  |
| WB | 64 | CNC1CCN(c2cc3c(cc2F)c(=O)c2c(=O)[nH]sc2n3C2CC2)C1 (centres unmarked) [Example 25] |  |
| WB | 128 | CCn1c2cc3c(cc2c(=O)c2c(=O)[nH]sc21)OCO3 [Example 29, 9-Ethyl-6,7-methylenedioxy-2,3,4,9-tetrahydroisothiazolo[5,4-b]quinoline-3,4-dione] |  |
| WB | 64 | O=c1[nH]sc2c1c(=O)c1cc(F)c(N3CCCC3)c(F)c1n2C1CC1 [Example 32] |  |

| Structure (SMILES) | Topoisomerase II-mediated DNA breakage, extent of breakage (DNA topoisomerase II) | Topoisomerase II-mediated DNA breakage, Concentration (DNA topoisomerase II) [µg/mL] | other results |
| --- | --- | --- | --- |
| O=c1[nH]sc2c1c(=O)c1cc(F)c(N3CCNCC3)cc1n2C1CC1 [Example 19, 9-Cyclopropyl-6-fluoro-7-(1-piperazinyl)-2,3,4,9-tetrahydroisothiazolo[5,4-b]quinoline-3,4-dione] | MB | 64 |  |

Reference: patent US5071848A, “Tricyclic quinoline antineoplastic agents” (Abbott Laboratories, priority 1989, dated 1991)
